Entries after “also recorded” stand apart in the source; their conditions may differ.
Columns and labels:
[1] = system: p53 protein expression in HCT116 cells; assay: Western blot of p53 protein in parental HCT116 cells; assay type: cell-based, human; conditions: FIG. 2A
Method: (§1) Cells were collected and protein concentration was quantified by the Bio-Rad protein assay prior to SDS-PAGE. Proteins were transferred to a PVDF membrane (Immobilon-P, Millipore Corporation, Bedford, Mass.) by a semi-dry transfer apparatus (Bio-Rad Laboratories, Hercules, Calif.). The membranes with transferred proteins were blotted with 10% W/V non-fat dry milk and then incubated with the primary antibody and subsequently secondary antibodies, which were labelled by horseradish peroxidase, or infrared dyes (IR). Signals were visualized by either ECL (Amersham Pharmacia Biotech, England, UK) and exposed to an X-ray film, or scanned by the Odyssey Infared Imaging System (LI-COR Biosciences, Lincoln, Nebr.). Anti-p53, DO-1, was from Santa Cruz biotechnology, Inc. (Santa Cruz, Calif.), anti-p73 (AB-1) and anti-p21 (AB-1) were obtained from Calbiochem (San Diego, Calif.). Anti-ser20 of p53 Cell were obtained from Signaling Technology (Danvers, Mass.) and anti-DR5 antibody was obtained from Cayman Chemical (Ann Arbor, Mich.).
(§2) The chemical library screening was directed at restoring “p53 responses” in p53-deficient cells. The small molecules identified by the cell-based screening procedure appeared to be able to restore p53 responses in p53-deficient colon tumors and to eliminate viable cells. Their function was further tested on wild-type p53-expressing and p53-knockout HCT116 colon adenocarcinoma cell lines. A number of candidate modulators of signaling by the p53 family appeared to induce expression of p53 target genes such as p21 or DR5(13) either with or without stabilizing p53 protein in HCT116 cells (FIG. 2A).

[2] = system: DR5 and p21 in HCT116/p53(+/+) cells; assay: Western blot of p53 target genes DR5 and p21 in HCT116/p53(+/+) cells; assay type: cell-based, human; conditions: for expression of p53 targets DR5 and p21 proteins: parental HCT116 (p53+/+) cells, FIG. 2A
Method: (§3) FIGS. 2A-2B show protein levels of p53 target genes p21 and DR5 were induced by selected compounds in HCT/p53(+/+) cells (A) or HCT/p53(−/−) cells (B). In A, doses of compounds (μM) are listed above each lane. Cells treated with compounds were harvested and lysed for SDS-PAGE and immunoblotted with p21 or DR5 antibodies. Ran was used as a protein loading control. Doses of compounds in B were as follows: 2 μM for #15, 12 μM for #1 and #23, 20 μM for #20 and #32, 100 μM for #33, 200 μM for #5, #8, #12, #16, #17, and #22, and 400 μM for #3. The dose for adriamycin was 0.2 μg/ml. Cells were incubated for 16 hours at 37° C. with the various drugs prior to cell harvest;
as §1, §2

[3] = system: p73 in HCT116/p53(−/−) cells; assay: Western blot of p73 protein in HCT116/p53(-/-) cells; assay type: cell-based, human; conditions: FIG. 3F
Method: (§4) FIGS. 3A-3F show: Structures (A) of isolated compounds and summary of their effects on the p53 family and transcriptional targets (B). Cell cycle profiles of HCT/p53(+/+) and HCT/p53(−/−) in response to treatment by selected compounds (C-E). The dose of #17 was 200 μM and for #23 it was 10 μM. F, p73 protein levels were elevated in HCT116/p53(−/−) cells in response to treatment by selected compounds at various concentrations as indicated;
as §1
The questioned whether the p53 family member p73 is involved in the p53-responsive transcriptional activity induced by the compounds identified was then tested. p63, the other p53 family member, was not tested, because the TA form of p63 is rarely expressed in malignant and normal tissues except for germ cells of the ovary and testis.

[4] = system: DR5 and p21 in HCT116/p53(−/−) cells; assay: Western blot of p53 target genes DR5 and p21 in HCT116/p53(-/-) cells; assay type: cell-based, human; conditions: for DR5 and p21 expression (p53 target genes): p53-null HCT116 cells, 16 hours, doses per compound in FIG. 2B
Method: as §3, §1
A number of selected compounds was further tested on HCT116/p53^−/− cells to verify the possibility of induction of p53 target gene expression in the absence of p53. […] The importance of this observation is in establishing that it is possible to identify small molecules with the potential to induce p53 target gene expression in p53-deficient cells.

γH2AX = γH2AX test (DNA damage signaling); assay type: cell-based; conditions: after treatment
[5] = system: HCT116/p53(+/+)/PG-13 cells; assay: p53 transcriptional activity, PG13 reporter, HCT116/p53(+/+)/PG-13 cells; assay type: cell-based, human; conditions: 16 h, bioluminescence
Method: (§5) Cells were treated by the indicated compounds at progressive 1:2 serial dilutions for 16 h, and the luciferase activities were detected by bioluminescence imaging. Fold induction was calculated by comparing to the nontreated cells;

[6] = system: HCT116/p53(−/−) xenografts; assay: In vivo anti-tumor assay, HCT116/p53(-/-) xenografts in Balb/c nude mice; conditions: doses just below the MTD
Method: Balb/c nude mice were inoculated subcutaneously with 2 million HCT116/p53(−/−) cells in Matrigel on each flank. 6 mice were used in each group, in each of the two experiments. When the tumor mass reached about 3-5 mm, mice were treated with the compounds alone or following a single dose of TRAIL at 100 μg/mouse in experiment 1. At 7 days after treatment, mice were sacrificed and the tumor masses were weighted. The doses used were 100 mg/kg for #1, 50 mg/kg for #14, and 10 mg/kg for #23;
Balb/c nude mice (Charles River Laboratories, Wilmington, Mass.) were inoculated subcutaneously with 2 million HCT116/p53(−/−) cells in an equal volume of Matrigel. When tumor masses reached about 3-5 mm in diameter, mice were treated with the compounds alone by intraperitoneal injection or following a single intravenous dose of TRAIL at 100 μg/mouse. At 7 days after treatment, mice were sacrificed and the tumor masses were weighed. DLD1/PG13 cells were inoculated subcutaneously with 5 million cells. At 24 hours later mice were treated with selected compounds, and subsequently bioluminescence imaging was carried out after 16 hours as previously described [Wang, W. & El-Deiry, W. S. (2003) Cancer Biol Ther 2, 196-202].
(§6) Compounds #1, #14, #17, and #23 were tested in colon-tumor xenograft-bearing mice in order to evaluate their toxicities and potential anti-tumor effects (FIG. 4). […] The initial doses were chosen below maximal tolerated doses based on the NCI DTP toxicology databases for chemical compound testing in vivo so that mice would survive drug administration and allow subsequent evaluation of anti-tumor effects. p53-null HCT116 xenografts were first tested to document anti-tumor effects in p53-deficient tumors and an experiment to simulate therapy of established tumors was designed. A total of 2×10^6 p53-null HCT116 cells were implanted on opposite flanks subcutaneously in each of 6 nude mice in each group. When tumor masses grew to about 3-5 mm in diameter, drugs were administered intra-peritoneally (#1: 100 mg/kg; #14: 50 mg/kg; #23: 10 mg/kg), and on the next day additional groups received intravenous TRAIL (15) (100 μg/mice via the tail vein). Tumor weights were determined at 7 days later. […] Nonetheless in the future it may be possible to modify the structure of #17 or identify doses where synergistic interactions with TRAIL may be observed.

[7] = Toxicity in xenograft-bearing mice; assay type: in vivo; conditions: at higher doses (above MTD)
Method: as §6

HCT116/p53^−/− cells = assay: Flow cytometry cell cycle profile, HCT116/p53(-/-); assay type: cell-based, human
Method: as §4
(§7) Adherent cells in a 6-well plate were trypsinized and collected in 15 ml centrifuge tubes to which were added the originally floating cells. The collected cells were ethanol-fixed and stained with propidium iodide (Sigma, St. Louis, Mo.). The DNA content of the stained cells was then measured using an Epics Elite flow cytometer (Beckman-Coulter, Fullerton, Calif.).
(§8) The ability of selected compounds from the chemical library screen to induce apoptosis of human colon tumor cells and the dependence of their effects on endogenous p53 status was further evaluated.

HCT116/p53^+/+ cells = assay: Flow cytometry cell cycle profile, HCT116/p53(+/+); assay type: cell-based, human; conditions: #17 200 μM, #23 10 μM
Method: as §4, §7, §8

[8] = system: HCT116/p53(−/−)/PG13 cells; assay: p53 transcriptional activity, PG13 reporter, HCT116/p53(-/-)/PG13 cells; assay type: cell-based, human; conditions: p53-null HCT116, 16 h, bioluminescence
Method: as §5

O=C(O)/C=C\C(=O)Nc1ccc2c(c1)-c1ccccc1C2 [#5]
p53 protein expression [1]: slight or no significant effect
expression of p53 targets DR5 and p21 proteins [2]: increase p53 target gene expression

COC1=C(C)C(=O)c2c(c(COC(N)=O)c3n2CC2C3N2C)C1=O (stereo not shown) [#11]
p53 protein expression [1]: increased p53 expression
expression of p53 targets DR5 and p21 proteins [2]: more modest

COc1cccc2c1C(=O)c1c(O)c3c(c(O)c1C2=O)C[C@@](O)(C(=O)CO)C[C@@H]3O[C@H]1C[C@H](N)[C@H](O)[C@H](C)O1 [adriamycin, doxorubicin, reference compound]
p73 protein expression [3]: only increased p73 slightly
DR5 expression ([4]; HCT116/p53^−/− cells): no obvious effect
p21 expression ([4]; HCT116/p53^−/− cells): little effect

O=c1[nH]c(SCc2ccccc2[N+](=O)[O-])nc2nc[nH]c12 [#22]
DR5 and p21 expression (p53 target genes) [4]: increase DR5 and p21 expression

C[C@]12CC[C@H](O)C[C@H]1CC[C@@H]1[C@@H]2CC[C@]2(C)[C@@H](C3=CC(=O)OC3)[C@@H](O)C[C@]12O [#32]
DR5 and p21 expression (p53 target genes) [4]: increase DR5 and p21 expression

CC(C)=CCNc1ncnc2c1c(C#N)cn2C1OC(CO)C(O)C1O (stereo not shown) [#16]
p73 protein expression [3]: induce p73 protein expression
p53 protein expression [1]: slight or no significant effect
expression of p53 targets DR5 and p21 proteins [2]: increase p53 target gene expression

CN(C)CCCn1c2ccccc2c2cnccc21 [#17]
γH2AX (γH2AX): not
p73 protein expression [3]: did not increase p73 expression
p53 transcriptional activity [5]: highest
DR5 expression ([4]; HCT116/p53^−/− cells): highest
DR5 and p21 expression (p53 target genes) [4]: increasing expression of the p53 target genes DR5 and p21; also recorded: strongly induce p53 target gene expression
anti-tumor effect on established xenograft [6]: no apparent in vivo anti-tumor effect
toxicity to mice [7]: toxic to mice
sub-G1 peak (apoptosis) (HCT116/p53^−/− cells; HCT116/p53^−/−, #17 200 μM, #23 10 μM): induced a sub-G1 peak characteristic of apoptosis
S-phase population on apoptosis induction (HCT116/p53^−/− cells; p53-null HCT116 cells, compared with wild-type p53-expressing HCT116): without suppressing the S-phase population
sub-G1 peak (apoptosis) (HCT116/p53^+/+ cells): induced a sub-G1 peak characteristic of apoptosis
p53 transcriptional activity (reporter assay response) [8]: highest; also recorded: stronger responses in the reporter assays
p53 protein expression [1]: slight or no significant effect; also recorded: modestly induced p53 levels
DR5 levels ([2]; HCT116/p53^+/+ cells): highest
expression of p53 targets DR5 and p21 proteins [2]: increase p53 target gene expression

CC[C@@]1(O)C(=O)OCc2c1cc1n(c2=O)Cc2cc3c(NC(=O)CN)cccc3nc2-1.Cl [#33]
p53 protein expression [1]: increase p53 expression; also recorded: significantly increased p53 protein levels
expression of p53 targets DR5 and p21 proteins [2]: increased expression of DR5 and p21 proteins

O=C(O)c1ccccc1-c1ccccc1C(=O)Nc1ccc2c(c1)[nH]c(=O)c1ccccc12 [#12]
p73 protein expression [3]: induce p73 protein expression
p53 protein expression [1]: slight or no significant effect
expression of p53 targets DR5 and p21 proteins [2]: increase p53 target gene expression

O=C(O)CCC(=O)c1ccc2sc3ccccc3c2c1 [#8]
p73 protein expression [3]: induce p73 protein expression
DR5 and p21 expression (p53 target genes) [4]: increase DR5 and p21 expression

Cc1c2ccccc2c(CSC(=N)N)c2ccccc12.Cl [#15]
p53 protein expression [1]: increased p53 expression; also recorded: significantly increased p53 protein levels
expression of p53 targets DR5 and p21 proteins [2]: more modest

Cc1ccc(CCCC(=O)O)cc1C [#3]
p53 protein expression [1]: slight or no significant effect
expression of p53 targets DR5 and p21 proteins [2]: increase p53 target gene expression
